Reference: ChEMBL document CHEMBL1156485, “Distinct structural changes in a G protein-coupled receptor caused by different classes of agonist ligands” (J Biol Chem, 2007)
Calls of active or inactive are those of the source. No cut-off for these calls is given here.

Key:
[1] = tested on: COS-7; assay: Inverse agonist activity at rat M3'(3C)-Xa receptor expressed in african green monkey COS7 cells assessed as reduction in basal inositol monophosphate accumulation at 10 uM; assay type: functional, cell-based
[2] = tested on: Muscarinic acetylcholine receptor M3 (Rattus norvegicus), P08483 [A91C,T549C]; assay: Enhancement of disulfide bond cross-linking formation in rat M3'(3C)-Xa receptor A91C/T549C mutant expressed in african green monkey COS7 cells at 100 nM by Western blotting; assay type: cell-based; settings: COS-7
Chain of Muscarinic acetylcholine receptor M3 (Rattus norvegicus), P08483 [A91C,T549C] (P08483 whole entry A91C/T549C): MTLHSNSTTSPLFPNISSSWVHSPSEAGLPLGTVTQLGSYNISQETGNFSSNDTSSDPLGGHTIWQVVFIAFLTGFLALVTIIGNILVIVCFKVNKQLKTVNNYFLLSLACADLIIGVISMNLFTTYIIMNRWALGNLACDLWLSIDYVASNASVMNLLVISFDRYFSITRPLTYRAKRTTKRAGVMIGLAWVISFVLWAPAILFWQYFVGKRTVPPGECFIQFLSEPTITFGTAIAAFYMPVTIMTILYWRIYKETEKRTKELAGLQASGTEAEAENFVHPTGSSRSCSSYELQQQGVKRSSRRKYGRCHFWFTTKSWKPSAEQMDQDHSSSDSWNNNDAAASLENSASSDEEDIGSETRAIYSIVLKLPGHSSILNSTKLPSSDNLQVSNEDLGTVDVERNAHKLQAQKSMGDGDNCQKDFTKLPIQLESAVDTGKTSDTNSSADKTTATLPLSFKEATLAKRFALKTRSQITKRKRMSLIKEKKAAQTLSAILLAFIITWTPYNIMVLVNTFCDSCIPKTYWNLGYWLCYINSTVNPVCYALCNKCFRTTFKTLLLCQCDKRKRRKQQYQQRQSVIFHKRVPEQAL

[3] = tested on: Muscarinic acetylcholine receptor M3 (Rattus norvegicus), P08483 [A91C,T549C]; assay: Stimulation of disulfide bond cross-linking formation in rat M3'(3C)-Xa receptor A91C/T549C mutant expressed in african green monkey COS7 cells by scanning densitometry relative to control; assay type: cell-based; settings: COS-7
[4] = tested on: Muscarinic acetylcholine receptor M3 (Rattus norvegicus), P08483 [F92C,F550C]; assay: Stimulation of disulfide bond cross-linking formation in rat M3'(3C)-Xa receptor F92C/F550C mutant expressed in african green monkey COS7 cells by scanning densitometry relative to control; assay type: cell-based; settings: COS-7
Chain of Muscarinic acetylcholine receptor M3 (Rattus norvegicus), P08483 [F92C,F550C] (P08483 whole entry F92C/F550C): as the sequence (P08483 whole entry A91C/T549C) above, with C91A, F92C, C549T, F550C counted along it

[5] = tested on: Muscarinic acetylcholine receptor M3 (Rattus norvegicus), P08483 [F92C,F550C]; assay: Inverse agonist activity at rat M3'(3C)-Xa receptor F92C/F550C mutant expressed in african green monkey COS7 cells assessed as reduction in basal inositol monophosphate accumulation at 10 uM; assay type: functional, cell-based; settings: COS-7
[6] = tested on: Muscarinic acetylcholine receptor M3 (Rattus norvegicus), P08483 [F92C,F550C]; assay: Enhancement of disulfide bond cross-linking formation in rat M3'(3C)-Xa receptor F92C/F550C mutant expressed in african green monkey COS7 cells at 100 nM by Western blotting; assay type: cell-based; settings: COS-7
[7] = tested on: Muscarinic acetylcholine receptor M3 (Rattus norvegicus), P08483 [A91C,T549C]; assay: Inverse agonist activity at rat M3'(3C)-Xa receptor A91C/T549C mutant expressed in african green monkey COS7 cells assessed as reduction in basal inositol monophosphate accumulation at 10 uM; assay type: functional, cell-based; settings: COS-7
[8] = tested on: Muscarinic acetylcholine receptor M3 (Rattus norvegicus), P08483 [A91C,T549C]; assay: Inhibition of disulfide bond cross-linking in rat M3'(3C)-Xa receptor A91C/T549C mutant expressed in african green monkey COS7 cells at 1 mM by Western blotting; assay type: cell-based; settings: COS-7
[9] = Agonist activity at rat M3'(3C)-Xa receptor expressed in african green monkey COS7 cells assessed as increase in myo-[3H]inositol hydrolysis; assay type: functional, cell-based; settings: COS-7
[10] = tested on: Muscarinic acetylcholine receptor M3 (Rattus norvegicus), P08483 [F92C,F550C]; assay: Inhibition of disulfide bond cross-linking in rat M3'(3C)-Xa receptor F92C/F550C mutant expressed in african green monkey COS7 cells at 1 mM by Western blotting; assay type: cell-based; settings: COS-7
[11] = Displacement of [3H]NMS from rat M3'(3C)-Xa receptor expressed in african green monkey COS7 cells; assay type: cell-based; settings: cos-7

Compound	Activity [1]	Activity [2]	Emax [3] [%]	Emax [4] [%]	Activity [5]	Activity [6]	Activity [7]	Activity [8]	EC50 [9] [µM]	Activity [10]	Ki [11] [µM]
C[N+]1(C)[C@@H]2C[C@@H](OC(=O)[C@H](CO)c3ccccc3)C[C@H]1[C@@H]1O[C@@H]12	Active	Active	244	192	Active	Active	Active				
C[N+](C)(C)CCOC(N)=O [CARBACHOL]								Active	0.063	Active	23.1
C[N+](C)(C)CC#CCN1CCCC1=O								Active		Active	
CN1[C@@H]2CC[C@H]1C[C@@H](OC(=O)C(CO)c1ccccc1)C2 (stereo partly specified)	Active	Active				Active					
